Test results as given in patent publication US20060216266A1, “Absorbable alpha-cyanoacrylate compositions” (priority 2005, published 2006).

Experiments:
[1] = Lap shear testing using pig skin; conditions: 1/2" x 1" overlap, about 100 μl adhesive, cure 20~30 min, Instron pulling rate 5 mm/min, about 10 joints
Description: General Procedure for Lap Shear Testing Using Pig Skin
Fresh pig skin was harvested from the back of the pig within 5 hours post sacrifice. The hair was removed by trimming and shaving to expose a smooth skin surface. The fat attached to the inside skin surface was trimmed away. The skin was cut into 2″×1″ coupons and covered by saline moist paper towel before use.
The external surface of the skin was used as bonding surface to prepare the lap shear joint samples.
The coupons were patted dry prior to forming the lap shear joint. About 1 00 μl of adhesive was deposited to one coupon within ½″ from the nearer end and smoothed to cover a ½″×1″ area (FIG. 1). The other coupon was placed over the area of the coupon with applied adhesive to form an overlap of ½″×1″. A 1 lb weight was placed on top of the overlap area. The joint was allowed to cure for 20˜30 min and the strength of the joint was tested as described below.
The strength of the cured joint was tested using an Instron (Model 5544) with a pulling rate of 5 mm/min. The maximum load for the joint to fail was recorded.
Typically, about 10 joint samples were tested for each adhesive.

[2] = Glass transition temperature of polymer film; assay type: physicochemical; conditions: adhesive polymer formed from the monomer
Description: A 1″×1″ Prolene mesh (Ethicon, Inc.) was briefly rinsed with 0.5% wt NaHCO3 aqueous solution and patted dry. The mesh was placed on a freshly prepared Agar plate in a petri dish and about 100 mg of monomer adhesive was applied and spread evenly across the mesh. The monomer adhesive was allowed to cure completely overnight with the petri dish covered and sealed with parafilm. The fully cured polymer film formed over the mesh was removed and rinsed with deionized water to remove any Agar attached and patted dry with paper towel. The thickness of the polymer film was about 0.6 mm.

[3] = Bonding of two moist fingertips by monomer; conditions: very small amount of monomer placed between two moist fingertips

In the case of C=C(C#N)C(=O)OCCCCCC(=O)OCC [Et-ε-CPL-CA, 6-(2-Cyano-acryloyloxy)-hexanoic acid ethyl ester], the “Load (maximum load for the lap shear joint to fail)” value (“Load” below) [1] is reported as 3.68 ± 0.64 Ib.

With C=C(C#N)C(=O)OC(CCCC)C(=O)OCC (stereo not drawn) [Et-α-CPL-CA, 2-(2-Cyano-acryloyloxy)-hexanoic acid ethyl ester] the “Load” value [1] was 1.26 ± 0.29 Ib.

In the case of C=C(C#N)C(=O)OC(C)C(=O)OCCCC (centres unmarked) [Bu-Lac-CA, 2-Cyano-acrylic acid 1-butoxycarbonyl-ethyl ester, reference compound], the “Glass Transition Temperature (Tg, ° C.)” value [2] is reported as 52 °C, the Bonding of fingertips [3] is reported as “bonded the fingertips strongly within one minute” and the “Load” value [1] is reported as 4.96 ± 0.67 Ib.

In the case of C=C(C#N)C(=O)OC(C)CC(=O)OCC (stereo not drawn) [Et-β-HBT-CA, 3-(2-Cyano-acryloyloxy)-butyric acid ethyl ester], the “Glass Transition Temperature (Tg, ° C.)” value [2] is reported as 32 °C, the Bonding of fingertips [3] is reported as “bonded the fingertips strongly within one minute” and the “Load” value [1] is reported as 4.09 ± 0.48 Ib.

In the case of C=C(C#N)C(=O)OC(CCC)CC(=O)OCC (stereo not drawn) [Et-β-CPL-CA, 3-(2-Cyano-acryloyloxy)-hexanoic acid ethyl ester], the “Glass Transition Temperature (Tg, ° C.)” value [2] is reported as −11 °C, the Bonding of fingertips [3] is reported as “bonded the fingertips strongly within one minute” and the “Load” value [1] is reported as 4.49 ± 0.68 Ib.
